Several values for one entry are separate records, joined by “and”; a condition that tells them apart may be missing. Identical values can stand only once. Entries after “also recorded” stand apart in the source; their conditions may differ. Like-named read-outs stand apart in the source and are kept apart here.
Assays:
[1] = target: T1, R478A DXP synthase (Escherichia coli, UniProt P77488, R478A); type: biochemical, E. coli; conditions: 6 °C, from pyruvate and D-GAP
[2] = target: T2, Y392F DXP synthase (Escherichia coli, UniProt P77488, Y392F); type: biochemical, E. coli; conditions: 6 °C, from pyruvate and D-GAP
[3] = target: T3, wild type DXP synthase (Escherichia coli, UniProt P77488); conditions: 6 °C; cited from earlier work
[4] = target: T1, R478A DXP synthase; type: biochemical, E. coli
[5] = target: T1, R478A DXP synthase; type: binding, E. coli; conditions: D-GAP up to 15 mM
[6] = target: T1, R478A DXP synthase; type: biochemical, E. coli; conditions: for Km: R478A, coupled assay, 37 °C
[7] = target: T4, R420A DXP synthase (Escherichia coli, UniProt P77488, R420A); experiment: Substrate binding by intrinsic total protein fluorescence; parameters: species or system E. coli; conditions: D-GAP up to 15 mM
[8] = target: T2, Y392F DXP synthase; type: biochemical, E. coli; conditions: for Km: Y392F, coupled assay, 37 °C
[9] = target: T3, wild type DXP synthase; conditions: cited from earlier work
[10] = target: T3, wild type DXP synthase; experiment: Substrate binding by intrinsic total protein fluorescence; parameters: species or system E. coli
[11] = target: T4, R420A DXP synthase; experiment: Steady-state DXP formation monitored by CD at 290 nm; type: biochemical, E. coli; conditions: 37 °C, D-GAP 0.25 – 2 mM, 1 mM pyruvate
[12] = target: T2, Y392F DXP synthase; type: biochemical, E. coli; conditions: CD at 290 nm, 37 °C
[13] = target: T1, R478A DXP synthase; conditions: − D-GAP, 6 °C, single turnover
[14] = target: T1, R478A DXP synthase; conditions: + D-GAP (2 mM in second syringe), 6 °C
[15] = target: T2, Y392F DXP synthase; conditions: − D-GAP, 6 °C, single turnover
[16] = target: T3, wild type DXP synthase; conditions: 6 °C, cited from earlier work
[17] = target: T3, wild type DXP synthase; conditions: − D-GAP, 6 °C; cited from earlier work
[18] = target: T4, R420A DXP synthase; conditions: − D-GAP, 6 °C, single turnover
[19] = target: T4, R420A DXP synthase; conditions: + D-GAP (2 mM in second syringe), 6 °C
[20] = target: T2, Y392F DXP synthase; conditions: + D-GAP (200 μM in second syringe), 6 °C
[21] = target: T3, wild type DXP synthase; experiment: DX product formation from pyruvate and D-glyceraldehyde; type: biochemical, E. coli; conditions: 30 mM D-glyceraldehyde and 5 mM pyruvate, 8 °C
[22] = target: T3, wild type DXP synthase; conditions: 30 mM D-glyceraldehyde, 8 °C
[23] = target: T1, R478A DXP synthase; experiment: biochemical; type: binding, E. coli
[24] = target: T2, Y392F DXP synthase; experiment: Substrate binding by intrinsic total protein fluorescence; parameters: species or system E. coli
[25] = target: T2, Y392F DXP synthase; experiment: CD titration with pyruvate; type: binding, E. coli
[26] = target: T4, R420A DXP synthase; experiment: biochemical; type: binding, E. coli
[27] = target: T3, wild type DXP synthase; conditions: read-out: Kd^pyruvate (apparent), CD spectroscopy; cited from earlier work

SMILES: CC(=O)[C@@H](O)[C@H](O)COP(=O)(O)O [DXP, 1-deoxy-D-xylulose 5-phosphate]
- Formation of DXP, k4 (faster phase) [1]: 0.78 ± 0.08 s⁻¹
- Formation of DXP, k4′ (slower phase) [1]: 0.26 ± 0.02 s⁻¹
- Formation of DXP, k4 (faster phase) [2]: 1.34 ± 0.12 s⁻¹
- Formation of DXP, k4′ (slower phase) [2]: 0.34 ± 0.01 s⁻¹
- Formation of DXP, k4′ (slower phase) [3]: 0.29 ± 0.01 s⁻¹

SMILES: O=C[C@H](O)COP(=O)(O)O [D-GAP, D-glyceraldehyde 3-phosphate]
- Hill coefficient nH for D-GAP ([4]; CD at 290 nm, 37 °C): 1.1 ± 0.1
- Km ([4]; read-out: Km^D-GAP, CD at 290 nm, 37 °C, D-GAP 0.15 – 2 mM, 1 mM pyruvate): 530 ± 100 µM
- fluorescence quenching upon titration of D-GAP [5]: quenching of fluorescence was not observed; also recorded: negligible changes in fluorescence
- increase in Km^D-GAP compared to wild type DXP synthase ([6]; R478A vs wild type): 70 fold
- Km ([6]; read-out: Km^D-GAP): 1600 ± 300 µM
- fluorescence quenching upon titration of D-GAP [7]: negligible changes in fluorescence; also recorded: quenching of fluorescence was not observed
- decrease in kcat/Km^D-GAP compared to wild type ([8]; Y392F vs wild type): near eight-fold decrease
- Km ([8]; read-out: Km^D-GAP): 210 ± 20 µM
- Km ([9]; read-out: Km^D-GAP): 23.5 ± 1.7 µM
- Kd [10]: 2000 ± 500 µM
- saturation by D-GAP [11]: saturation by D-GAP is not achieved; also recorded: Saturation was not achieved
- Hill coefficient nH for D-GAP [12]: 1.2 ± 0.1

SMILES: Cc1ncc(C[n+]2c(C(C)(O)C(=O)O)sc(CCOP(=O)(O)OP(=O)(O)O)c2C)c(N)n1 (stereo not drawn) [LThDP, C2α-lactylthiamin diphosphate]
- Formation of LThDP, k1 (faster phase) [13]: 0.85 ± 0.03 s⁻¹
- Formation of LThDP, k1′ (slower phase) [13]: 0.29 ± 0.02 s⁻¹
- D-GAP-promoted LThDP Decarboxylation, k2 [14]: k2 = 36.5 ± 1.1 s^−1
- Formation of LThDP (re-synthesis), k1 [14]: k1 = 0.84 ± 0.004 s^−1
- Formation of LThDP, k1 (faster phase) [15]: 1.06 ± 0.03 s⁻¹
- Formation of LThDP, k1′ (slower phase) [15]: 0.3 ± 0.01 s⁻¹
- D-GAP-promoted LThDP Decarboxylation, k2 [16]: k2 = 42.0 ± 1.0 s^−1
- Formation of LThDP (re-synthesis), k1 ([16]; + D-GAP): k1 = 0.68 ± 0.01 s^−1
- Formation of LThDP, k1 (faster phase) [17]: 1.39 ± 0.05 s⁻¹
- Formation of LThDP, k1′ (slower phase) [17]: 0.16 ± 0.02 s⁻¹
- LThDP Decarboxylation, k2 [17]: k2 = 0.07 ± 0.006 s^−1
- Formation of LThDP, k1 (faster phase) [18]: 1.24 ± 0.01 s⁻¹
- Formation of LThDP, k1′ (slower phase) [18]: 0.28 ± 0.002 s⁻¹
- Formation of LThDP (re-synthesis), k1 [19]: k1 = 0.67 ± 0.003 s^−1
- Formation of LThDP (re-synthesis), k1 [20]: k1 = 0.82 ± 0.01 s^−1

SMILES: CC(=O)[C@@H](O)[C@H](O)CO [DX, 1-deoxy-D-xylulose]
- overall rate of DX product formation, k4 [21]: 1.15 ± 0.7 s⁻¹
- overall rate of DX product formation, k4′ [21]: 0.5 ± 0.2 s⁻¹

SMILES: O=C[C@H](O)CO [D-glyceraldehyde]
- rate of LThDP decarboxylation promoted with D-glyceraldehyde, k2 [22]: 21.5 ± 0.2 s⁻¹ and 21 s⁻¹

SMILES: CC(=O)C(=O)O [pyruvate]
- Kd [23]: 80 ± 30 µM
- Hill coefficient nH for pyruvate ([23]; R478A, CD, 5 °C): 1.0 ± 0.2
- Kd [24]: 230 ± 60 µM
- Km ([6]; read-out: Km^pyruvate): 54 ± 7 µM
- Kd [25]: 113 µM
- Kd [26]: 37 ± 8 µM
- Hill coefficient nH for pyruvate ([26]; R420A, CD, 5 °C): 1.2 ± 0.3
- increase in Km^pyruvate compared to wild type ([8]; Y392F vs wild type): 1.5 fold
- Km ([8]; read-out: Km^pyruvate): 73 ± 4 µM
- Kd [27]: 89.4 µM
- Km ([9]; read-out: Km^pyruvate, wild type): 49 ± 8 µM
- Kd [10]: 230 ± 70 µM
